Source: US20210238162A1, “CHEMICAL COMPOUNDS” (GlaxoSmithKline Intellectual Property Development Limited, priority 2015, published 2021)

target: T1, haematopoietic prostaglandin D synthase (H-PGDS) (Homo sapiens, UniProt O60760); assay: H-PGDS RapidFire High Throughput Mass Spectrometry Assay; type: biochemical; details: H-PGDS RapidFire MS assay, mean pIC50; read-out: Potency Range (mean pIC50) (converted)
T1 construct: Full length human H-PGDS cDNA (Invitrogen Ultimate ORF IOH13026) was amplified by PCR; made in house; host or cells: E. coli BL21 (DE3*), vector pET22b+
Experimental: The H-PGDS RapidFire™ mass spectrometric assay monitors conversion of prostaglandin H2 (PGH2) to prostaglandin D2 (PGD2) by haematopoietic prostaglandin D synthase (H-PGDS). In the assay format described here, the substrate (PGH2) is formed in situ by the action of cyclooxygenase-2 on arachidonic acid. This first step is set up to be fast, and generates a burst of PGH2 at ˜10 μM. The PGH2 is then further converted to PGD2 by the H-PGDS enzyme. […] Plates are then read on the RapidFire™ high throughput solid phase extraction system (Agilent) which incorporates a solid phase extraction step coupled to a triple quadrupole mass spectrometer (AB SCIEX). Relative levels of PGD2 and PGF2α, which acts as a surrogate for substrate, are measured and a percent conversion calculated.
Full length human H-PGDS cDNA (Invitrogen Ultimate ORF IOH13026) was amplified by PCR with the addition of a 5′ 6-His tag and TEV protease cleavage site. The PCR product was digested with Ndel and Xhol and ligated into pET22b+ (Merck Novagen®). Expression was carried out in E. coli strain BL21 (DE3*) using auto-induction Overnight Express™ Instant TB medium (Merck Novagen®) supplemented with 1% glycerol. The culture was first grown at 37° C. and the temperature was reduced to 25° C. when OD600 reached 2.0. Cells were harvested by centrifugation after a further 18 hr. 10 g of E. coli cell pellet was suspended to a total volume of 80 mL in lysis buffer (20 mM Tris-Cl pH 7.5, 300 mM NaCl, 20 mM imidazole, 5 mM β-mercaptoethanol, 10% glycerol). 1 mg/mL protease inhibitors (Protease Inhibitor Cocktail Set Ill, Merck Calbiochem®) and 1 mg/mL lysozyme were added to the cell suspension. The suspension was then sonicated for 5 min (UltraSonic Processor VCX 750, Cole-Parmer Instrument Co.) with a micro probe (50% amplitude, 10 sec on/off) and then centrifuged at 100,000 g for 90 min (at 4° C.). The supernatant was loaded onto a Ni-NTA HiTrap column (5 mL, GE Heathcare, pre-equilibrated in lysis buffer). The column was washed with 10 column volumes of lysis buffer and eluted with lysis buffer containing 500 mM imidazole. The pooled protein peak fractions were concentrated using a 10 kDa centrifugal filter at 3500 g and 4° C. (Amicon Ultra-15 centrifugal filter unit with Ultracel-10 membrane from Millipore). Further purification of the concentrated protein was carried out using gel filtration chromatography on a HiLoad 26/600 Superdex 75 preparative grade column (GE Healthcare Life Sciences) using 50 mM Tris pH 7.5, 50 mM NaCl, 1 mM dithiothreitol, 1 mM MgCl2. Fractions containing the protein were pooled, concentrated as described above, and stored at −80° C.
The full length human COX-2 gene (accession number L15326) was amplified by PCR to generate an EcoRI-HindIII fragment containing an in-frame FLAG tag. This was subcloned into pFastBac 1 (Invitrogen). The COX2 FLAG plasmid was recombined into the baculovirus genome according to the BAC-to-BAC protocol described by Invitrogen. Transfection into Spodoptera frugiperda (Sf9) insect cells was performed using Cellfectin (Invitrogen), according to the manufacturer's protocol. […] Recombinant virus was added at a Multiplicity of Infection (MOI) of 5 and the culture was allowed to continue for 3 days. Cells were harvested using a continuous feed centrifuge run at 2500 g at a rate of approximately 2 L/min with cooling. The resultant cell slurry was re-centrifuged in pots (2500 g, 20 min, 4° C.) and the cell paste was stored at −80° C. […] The suspension was sonicated in 500 mL batches for 8×5 seconds at 10 u amplitude with the medium tip of an MSE probe sonicator and subsequently incubated at 4° C. for 90 min with gentle stirring. The lysate was centrifuged at 12000 rpm for 45 min at 4° C. in a Sorvall SLA1500 rotor. The supernatant (1400 mL) was added to 420 mL of 20 mM Tris-Cl pH 7.4, 150 mM NaCl, 0.1 mM EDTA to reduce the concentration of n-octyl-β-D-glucopyranoside to 1% w/v.

T1 sequence (O60760 whole entry): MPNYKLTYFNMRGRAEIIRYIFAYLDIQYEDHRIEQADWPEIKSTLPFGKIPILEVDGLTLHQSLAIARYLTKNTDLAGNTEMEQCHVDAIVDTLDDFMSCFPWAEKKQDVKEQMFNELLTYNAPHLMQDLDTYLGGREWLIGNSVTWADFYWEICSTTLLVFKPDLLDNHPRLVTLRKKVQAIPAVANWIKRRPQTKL

| Compound | IC50 |
| --- | --- |
| CC(C)CN1CC[C@H](NC(=O)c2cnc3cc(OC(F)F)c(F)cc3c2)C1=O [Example 50, (S)-7-(Difluoromethoxy)-6-fluoro-N-(1-isobutyl-2-oxopyrrolidin-3-yl)quinoline-3-carboxamide] | 10 to 79.4 nM |
| Cn1nnnc1N1CCC(NC(=O)c2cnc3cc(C4CC4)c(Cl)cc3c2)CC1 [Example 34, 6-Chloro-7-cyclopropyl-N-(1-(1-methyl-1H-tetrazol-5-yl)piperidin-4-yl)quinoline-3-carboxamide] | < 10 nM |
| C[C@H](N[C@H]1C[C@H](NC(=O)c2cnc3cc(OC(F)F)c(F)cc3c2)C1)C(F)F [Example 73, 7-(Difluoromethoxy)-N-(trans-3-(((S)-1,1-difluoropropan-2-yl)amino)cyclobutyl)-6-fluoroquinoline-3-carboxamide] | 10 to 79.4 nM |
| O=C1CC(NC(=O)c2cnc3cc(C4CC4)c(Cl)cc3c2)c2ccccc2N1 (stereo not shown) [Example 37, 6-Chloro-7-cyclopropyl-N-(2-oxo-1,2,3,4-tetrahydroquinolin-4-yl)quinoline-3-carboxamide] | < 10 nM |
| CC(C)(O)[C@H]1CC[C@H](NC(=O)c2cnc3cc(Cl)ccc3c2)CC1 [Example 204, 7-Chloro-N-(trans-4-(2-hydroxypropan-2-yl)cyclohexyl)quinoline-3-carboxamide] | 100 to 1000 nM |
| CC1CN(c2cc3ncc(C(=O)N[C@H]4CC[C@H](C(C)(C)O)CC4)cc3cc2F)C1 [Example 183, 6-Fluoro-N-(trans-4-(2-hydroxypropan-2-yl)cyclohexyl)-7-(3-methylazetidin-1-yl)quinoline-3-carboxamide] | 10 to 79.4 nM |
| CC(C)(O)[C@H]1C[C@H](NC(=O)c2cnc3cc(OC(F)F)c(Cl)cc3c2)C1 [Example 118, 6-Chloro-7-(difluoromethoxy)-N-(trans-3-(2-hydroxypropan-2-yl)cyclobutyl)quinoline-3-carboxamide] | < 10 nM |
| O=C(N[C@H]1CC[C@H](C(O)C(F)(F)F)CC1)c1cnc2cc(OC(F)F)ccc2c1 (stereo partly drawn) [Example 15, 7-(Difluoromethoxy)-N-(trans-4-(2,2,2-trifluoro-1-hydroxyethyl)cyclohexyl)quinoline-3-carboxamide] | < 10 nM |
| CCOC(=O)c1cnc(N[C@H]2C[C@H](NC(=O)c3cnc4cc(OC(F)F)c(F)cc4c3)C2)o1 [Example 83, Ethyl 2-((trans-3-(7-(difluoromethoxy)-6-fluoroquinoline-3-carboxamido)cyclobutyl)amino)oxazole-5-carboxylate] | 10 to 79.4 nM |
| CC1(O)CCC(NC(=O)c2cnc3cc(OC(F)F)c(Cl)cc3c2)C1 (stereo not shown) [Example 145, 6-Chloro-7-(difluoromethoxy)-N-(3-hydroxy-3-methylcyclopentyl)quinoline-3-carboxamide] | 10 to 79.4 nM |
| N#Cc1ccc(N2CC(NC(=O)c3cnc4cc(OC(F)F)c(F)cc4c3)C2)nc1 [Example 98, N-(1-(5-Cyanopyridin-2-yl)azetidin-3-yl)-7-(difluoromethoxy)-6-fluoroquinoline-3-carboxamide] | 10 to 79.4 nM |
| C[C@@H]1CNC(=O)[C@H]1NC(=O)c1cnc2cc(OC(F)F)c(Cl)cc2c1 [Example 144, 6-Chloro-7-(difluoromethoxy)-N-((3S,4R)-4-methy-2-oxopyrrolidin-3-yl)quinoline-3-carboxamide] | < 10 nM |
| CC1CN(c2cc3ncc(C(=O)N[C@@H]4C(=O)NC[C@H]4C)cc3cc2F)C1 [Example 207, 6-Fluoro-N-((3S,4R)-4-methyl-2-oxopyrrolidin-3-yl)-7-(3-methylazetidin-1-yl)quinoline-3-carboxamide] | 100 to 1000 nM |
| O=C(N[C@H]1CC[C@H](N2CC(O)(C(F)(F)F)C2)CC1)c1cnc2cc(OC(F)F)c(F)cc2c1 [Example 92, 7-(Difluoromethoxy)-6-fluoro-N-(trans-4-(3-hydroxy-3-(trifluoromethyl)azetidin-1-yl)cyclohexyl)quinoline-3-carboxamide] | 10 to 79.4 nM |
| CC(N[C@H]1CC[C@H](NC(=O)c2cnc3cc(OC(F)F)c(F)cc3c2)CC1)C(F)(F)F (stereo partly drawn) [Example 57, 7-(Difluoromethoxy)-6-fluoro-N-(trans-4-((1,1,1-trifluoropropan-2-yl)amino)cyclohexyl)quinoline-3-carboxamide] | 10 to 79.4 nM |
| O=C(N[C@H]1CCC[C@H]1O)c1cnc2cc(OC(F)F)c(F)cc2c1 [Example 52, 7-(Difluoromethoxy)-6-fluoro-N-((1S,2R)-2-hydroxycyclopentyl)quinoline-3-carboxamide] | 100 to 1000 nM |
| O=C(N[C@H]1CC[C@@H](N2CC(O)(C(F)(F)F)C2)CC1)c1cnc2cc(OC(F)F)c(F)cc2c1 [Example 91, 7-(Difluoromethoxy)-6-fluoro-N-(cis-4-(3-hydroxy-3-(trifluoromethyl)azetidin-1-yl)cyclohexyl)quinoline-3-carboxamide] | 100 to 1000 nM |
| CCOC(=O)c1coc(N2CC(NC(=O)c3cnc4cc(OC(F)F)c(F)cc4c3)C2)n1 [Example 82, Ethyl 2-(3-(7-(difluoromethoxy)-6-fluoroquinoline-3-carboxamido)azetidin-1-yl)oxazole-4-carboxylate] | 10 to 79.4 nM |
| CC(O)(CO[C@H]1CC[C@H](NC(=O)c2cnc3cc(OC(F)F)ccc3c2)CC1)C(F)(F)F (stereo partly drawn) [Example 19, 7-(Difluoromethoxy)-N-(trans-4-(3,3,3-trifluoro-2-hydroxy-2-methylpropoxy)cyclohexyl)quinoline-3-carboxamide] | 10 to 79.4 nM |
| O=C(N[C@H]1CC[C@H](C(O)C2CC2)CC1)c1cnc2cc(OC(F)F)ccc2c1 (stereo partly drawn) [Example 14, N-(trans-4-(-Cyclopropyl(hydroxy)methyl)cyclohexyl)-7-(difluoromethoxy)quinoline-3-carboxamide] | < 10 nM |
| CC(N[C@H]1CC[C@H](NC(=O)c2cnc3cc(OC(F)F)c(Cl)cc3c2)CC1)C(F)F (mixture of isomers) [Example 125, 6-Chloro-7-(difluoromethoxy)-N-(trans-4-((1,1-difluoropropan-2-yl)amino)cyclohexyl)quinoline-3-carboxamide] | < 10 nM |
| O=C(NC1CCCOC1)c1cnc2cc(OC(F)F)c(Cl)cc2c1 (stereo not shown) [Example 149, 6-Chloro-7-(difluoromethoxy)-N-(tetrahydro-2H-pyran-3-yl)quinoline-3-carboxamide] | 10 to 79.4 nM |
| CSc1cc2ncc(C(=O)N[C@H]3CC[C@H](C(C)(C)O)CC3)cc2cc1F [Example 161, 6-Fluoro-N-(trans-4-(2-hydroxypropan-2-yl)cyclohexyl)-7-(methylthio)quinoline-3-carboxamide] | < 10 nM |
| C[C@H](N[C@H]1CC[C@H](NC(=O)c2cnc3cc(OC(F)F)c(Cl)cc3c2)CC1)C(F)F [Example 130, 6-Chloro-7-(difluoromethoxy)-N-(trans-4-(((S)-1,1-difluoropropan-2-yl)amino)cyclohexyl)quinoline-3-carboxamide] | < 10 nM |

same assay, conditions: in at least one experimental run; read-out: H-PGDS pIC50 value (converted)

| Compound | IC50 |
| --- | --- |
| CC(C)(O)[C@H]1CC[C@H](NC(=O)c2cnc3cc(Cl)ccc3c2)CC1 [Example 204, 7-Chloro-N-(trans-4-(2-hydroxypropan-2-yl)cyclohexyl)quinoline-3-carboxamide] | 158 nM |
| CC(C)(O)[C@H]1C[C@H](NC(=O)c2cnc3cc(OC(F)F)c(Cl)cc3c2)C1 [Example 118, 6-Chloro-7-(difluoromethoxy)-N-(trans-3-(2-hydroxypropan-2-yl)cyclobutyl)quinoline-3-carboxamide] | 10 nM |
| O=C(N[C@H]1CC[C@H](C(O)C(F)(F)F)CC1)c1cnc2cc(OC(F)F)ccc2c1 (stereo partly drawn) [Example 15, 7-(Difluoromethoxy)-N-(trans-4-(2,2,2-trifluoro-1-hydroxyethyl)cyclohexyl)quinoline-3-carboxamide] | 7.94 nM |
| CC(C)(O)[C@H]1CC[C@H](NC(=O)c2cnc3cc(F)ccc3c2)CC1 [Example 193, 7-Fluoro-N-(trans-4-(2-hydroxypropan-2-yl)cyclohexyl)quinoline-3-carboxamide] | 2000 nM |
